Assay results: patent publication US9561231B2 (AbbVie Inc., priority 2012, dated 2017)
Where two headings read alike, the source gives them in different places.

Assays:
[1] = target: T1, first (BD1: amino acids K57-E168) bromodomain of BRD4 (Homo sapiens, UniProt O60885); assay: TR-FRET bromodomain binding assay, BRD4 BD1; settings: Ki calculated from IC50, probe Kd and probe concentration, read-out: TR-FRET Binding Ki: BRD4 (BDI_K57-E168)
T1 construct: His-tagged first (BD1: amino acids K57-E168)
Outline: (§1)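 Displacement of an Alexa647-labelled BET-inhibitor from His-tagged BD1 (K57-E168) or BD2 ([…]) measured by TR-FRET in pH 6.0 sodium phosphate buffer with NaCl, EDTA, Triton X-100 and DTT.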

[2] = target: T2, second (BD2: amino acids E352-E168) bromodomain of BRD4 (Homo sapiens, UniProt O60885); assay: TR-FRET bromodomain binding assay, BRD4 BD2; settings: Ki calculated from IC50, probe Kd and probe concentration, read-out: TR-FRET Binding Ki: BRD4 (BDII_E352-M457)
T2 construct: protocol
Outline: as §1

[3] = TR-FRET assay protocol (A-G, compound concentration range)
[4] = TR-FRET assay protocol (D, E or G) per compound

Ki [1, 3]	Ki [2, 3]	Ki [1, 4]	Ki [2, 4]	Structure (SMILES)
3660 nM	2080 nM			Cc1nnc(-c2cccc(-c3cc(=O)n(C)nc3-c3ccccc3Oc3ccccc3)c2)o1 [Example 176, 2-methyl-5-[3-(5-methyl-1,3,4-oxadiazol-2-yl)phenyl]-6-(2-phenoxyphenyl)pyridazin-3(2H)-one]
1600 nM	562 nM			Cn1nc(-c2ccccc2Oc2ccccc2)c(-c2ccncc2)cc1=O [Example 104, 2-methyl-6-(2-phenoxyphenyl)-5-(pyridin-4-yl)pyridazin-3(2H)-one]
604 nM	529 nM			CCN(CC)C(=O)c1ccc(-c2cc(=O)n(C)nc2-c2ccccc2Oc2ccccc2)cc1 [Example 158, N,N-diethyl-4-[1-methyl-6-oxo-3-(2-phenoxyphenyl)-1,6-dihydropyridazin-4-yl]benzamide]
114 nM	702 nM			CCOC(=O)Nc1cc(-c2cc(S(=O)(=O)CC)ccc2OCC2CC2)cn(C)c1=O [Example 338, ethyl{5-[2-(cyclopropylmethoxy)-5-(ethylsulfonyl)phenyl]-1-methyl-2-oxo-1,2-dihydropyridin-3-yl}carbamate]
344 nM	971 nM			Cn1nc(-c2ccccc2Oc2ccccc2)c(-c2ccnc(N)c2)cc1=O [Example 200, 5-(2-aminopyridin-4-yl)-2-methyl-6-(2-phenoxyphenyl)pyridazin-3(2H)-one]
11600 nM	6600 nM			CN1CCN(c2cc(=O)n(C)nc2-c2ccccc2Oc2ccccc2)CC1=O [Example 51, 2-methyl-5-(4-methyl-3-oxopiperazin-1-yl)-6-(2-phenoxyphenyl)pyridazin-3(2H)-one]
1050 nM	553 nM			COc1ccc(-c2cc(=O)n(C)nc2-c2ccccc2Oc2ccccc2)cn1 [Example 116, 5-(6-methoxypyridin-3-yl)-2-methyl-6-(2-phenoxyphenyl)pyridazin-3(2H)-one]
561 nM	176 nM			CCOC(=O)Cc1ccc(-c2cc(=O)n(C)nc2-c2ccccc2Oc2ccccc2)cc1 [Example 97, ethyl{4-[1-methyl-6-oxo-3-(2-phenoxyphenyl)-1,6-dihydropyridazin-4-yl]phenyl}acetate]
109 nM	75.1 nM			Cn1nc(-c2ccccc2Oc2ccccc2)c(-c2ccc(NCCN3CCOCC3)nc2)cc1=O [Example 162, 2-methyl-5-(6-{[2-(morpholin-4-yl)ethyl]amino}pyridin-3-yl)-6-(2-phenoxyphenyl)pyridazin-3(2H)-one]
2140 nM	1960 nM			Cn1nc(-c2ccccc2Oc2ccccc2)c(-c2ccc(N3CCCCC3)nc2)cc1=O [Example 184, 2-methyl-6-(2-phenoxyphenyl)-5-[6-(piperidin-1-yl)pyridin-3-yl]pyridazin-3(2H)-one]
149 nM	35.2 nM			CCOc1cc(=O)n(C)cc1-c1cc(NC(=O)C2(c3ccccc3)CC2)ccc1Oc1ccc(F)cc1F [Example 299, N-[4-(2,4-difluorophenoxy)-3-(4-ethoxy-1-methyl-6-oxo-1,6-dihydropyridin-3-yl)phenyl]-1-phenylcyclopropanecarboxamide]
159 nM	1420 nM			CCS(=O)(=O)c1ccc(OCC2CC2)c(-c2cc(N)c(=O)n(C)c2)c1 [Example 357, 3-amino-5-[2-(cyclopropylmethoxy)-5-(ethylsulfonyl)phenyl]-1-methylpyridin-2(1H)-one]
632 nM	1050 nM			Cn1nc(-c2ccccc2Oc2ccccc2)c(-c2ccc(C(O)C3CCCC3)cc2)cc1=O (centres unmarked) [Example 74, 5-{4-[cyclopentyl(hydroxy)methyl]phenyl}-2-methyl-6-(2-phenoxyphenyl)pyridazin-3(2H)-one]
5060 nM	4430 nM			COc1cc(=O)n(C)nc1-c1ccccc1Oc1cccc(F)c1 [Example 36, 6-[2-(3-fluorophenoxy)phenyl]-5-methoxy-2-methylpyridazin-3(2H)-one]
851 nM	3430 nM			Cn1nc(-c2ccccc2Oc2ccc(C#N)cc2)ccc1=O [Example 3, 4-[2-(1-methyl-6-oxo-1,6-dihydropyridazin-3-yl)phenoxy]benzonitrile]
195 nM	359 nM			CCOc1cc(=O)n(C)cc1-c1cc(NC(=O)c2ccc(-c3ccccc3)cc2)ccc1Oc1ccc(F)cc1F [Example 304, N-[4-(2,4-difluorophenoxy)-3-(4-ethoxy-1-methyl-6-oxo-1,6-dihydropyridin-3-yl)phenyl]biphenyl-4-carboxamide]
328 nM	184 nM			Cn1nc(-c2ccccc2Oc2ccccc2)c(-c2ccc(C(=O)NC3CC3)cc2)cc1=O [Example 114, N-cyclopropyl-4-[1-methyl-6-oxo-3-(2-phenoxyphenyl)-1,6-dihydropyridazin-4-yl]benzamide]
200 nM	38.9 nM			CCOc1cc(=O)n(C)cc1-c1cc(NS(=O)(=O)C[C@]23CC[C@H](CC2=O)C3(C)C)ccc1Oc1ccc(F)cc1F [Example 310, N-[4-(2,4-difluorophenoxy)-3-(4-ethoxy-1-methyl-6-oxo-1,6-dihydropyridin-3-yl)phenyl]-1-[(1S,4R)-7,7-dimethyl-2-oxobicyclo[2.2.1]hept-1-yl]methanesulfonamide]
233 nM	201 nM			CCOc1cc(=O)n(C)cc1-c1cc(NC(=O)c2ccc(N(CC)CC)cc2)ccc1Oc1ccc(F)cc1F [Example 303, 4-(diethylamino)-N-[4-(2,4-difluorophenoxy)-3-(4-ethoxy-1-methyl-6-oxo-1,6-dihydropyridin-3-yl)phenyl]benzamide]
1970 nM	10400 nM			Cn1nc(-c2ccccc2Oc2ccc(C(F)(F)F)cc2)ccc1=O [Example 7, 2-methyl-6-{2-[4-(trifluoromethyl)phenoxy]phenyl}pyridazin-3(2H)-one]
1610 nM	791 nM			Cn1nc(-c2ccccc2Oc2ccccc2)c(C2=CCN(S(C)(=O)=O)CC2)cc1=O [Example 85, 2-methyl-5-[1-(methylsulfonyl)-1,2,3,6-tetrahydropyridin-4-yl]-6-(2-phenoxyphenyl)pyridazin-3(2H)-one]
324 nM	3270 nM			Cn1cc(-c2cc(Nc3ccccn3)ccc2Oc2ccccc2)ccc1=O [Example 254, 1-methyl-5-[2-phenoxy-5-(pyridin-2-ylamino)phenyl]pyridin-2(1H)-one]
5960 nM	3090 nM			Cn1nc(-c2ccccc2Oc2ccccc2)c(-c2ccnc(N3CCOCC3)c2)cc1=O [Example 153, 2-methyl-5-[2-(morpholin-4-yl)pyridin-4-yl]-6-(2-phenoxyphenyl)pyridazin-3(2H)-one]
> 2380 nM	> 4080 nM			Cn1cc(-c2cc(S(C)(=O)=O)ccc2NCC2CC2)c(OC(C)(C)C(C)(C)O)cc1=O [Example 341, 5-{2-[(cyclopropylmethyl)amino]-5-(methylsulfonyl)phenyl}-4-[(3-hydroxy-2,3-dimethylbutan-2-yl)oxy]-1-methylpyridin-2(1H)-one]
		2010 nM	1100 nM	CCOc1cc(=O)n(C)cc1-c1cc(S(C)(=O)=O)ccc1NCc1ccc(F)cc1F [Example 409, 5-{2-[(2,4-difluorobenzyl)amino]-5-(methylsulfonyl)phenyl}-4-ethoxy-1-methylpyridin-2(1H)-one]
359 nM	151 nM			CCOc1cc(=O)n(C)cc1-c1cc(NS(=O)(=O)c2ccc(-c3ccccc3)cc2)ccc1Oc1ccc(F)cc1F [Example 309, N-[4-(2,4-difluorophenoxy)-3-(4-ethoxy-1-methyl-6-oxo-1,6-dihydropyridin-3-yl)phenyl]biphenyl-4-sulfonamide]
> 5820 nM	> 22200 nM			COc1cc(=O)n(C)nc1-c1ccccc1OCC1CCN(C(=O)OC(C)(C)C)CC1 [Example 43, tert-butyl 4-{[2-(4-methoxy-1-methyl-6-oxo-1,6-dihydropyridazin-3-yl)phenoxy]methyl}piperidine-1-carboxylate]
2150 nM	1520 nM			Cc1ccc(-c2cc(=O)n(C)nc2-c2ccccc2Oc2ccccc2)o1 [Example 211, 2-methyl-5-(5-methylfuran-2-yl)-6-(2-phenoxyphenyl)pyridazin-3(2H)-one]
1320 nM	854 nM			CN(C)CCNC(=O)c1cccc(-c2cc(=O)n(C)nc2-c2ccccc2Oc2ccccc2)c1 [Example 186, N-[2-(dimethylamino)ethyl]-3-[1-methyl-6-oxo-3-(2-phenoxyphenyl)-1,6-dihydropyridazin-4-yl]benzamide]

Structure (SMILES)	Ki [1, 3]	Ki [2, 3]	Ki [1, 4]	Ki [2, 4]
CCS(=O)(=O)Nc1ccc(Oc2ccc(OC3CCN(C(=O)OC(C)(C)C)CC3)cc2F)c(-c2cn(C)c(=O)cc2OC2CCN(C(=O)OC(C)(C)C)CC2)c1 [Example 320, tert-butyl 4-[(5-{2-(4-{[1-(tert-butoxycarbonyl)piperidin-4-yl]oxy}-2-fluorophenoxy)-5-[(ethylsulfonyl)amino]phenyl}-1-methyl-2-oxo-1,2-dihydropyridin-4-yl)oxy]piperidine-1-carboxylate]	> 2380 nM	275 nM		
CN1CC=C(c2cc(=O)n(C)nc2-c2ccccc2Oc2ccccc2)CC1 [Example 83, 2-methyl-5-(1-methyl-1,2,3,6-tetrahydropyridin-4-yl)-6-(2-phenoxyphenyl)pyridazin-3(2H)-one]	3610 nM	6830 nM		
